Tested on: Dogs
Assay: Effect on dog intraocular pressure, applanation pneumatonometry
Type: in vivo
Conditions: for time (Hr) of IOP max % decrease / time (Hr) of IOP max mmHg / IOP max mmHg / IOP max % decrease: 25 μl to the ocular surface, concentration 0.03%; for IOP max mmHg / IOP max % decrease: at the time of maximum given in the cell; for IOP max % decrease: vehicle 0.1% polysorbate 80 and 10 mM TRIS base; for ocular hypotensive effect in dogs: topical ocular administration, result in words
Method: The compounds were prepared at the said concentrations in a vehicle comprising 0.1% polysorbate 80 and 10 mM TRIS base. Dogs were treated by administering 25 μl to the ocular surface, the contralateral eye received vehicle as a control. Intraocular pressure was measured by applanation pneumatonometry. […]

Row | SMILES | time (Hr) of IOP max % decrease [h] | time (Hr) of IOP max mmHg [h] | IOP max mmHg [mmHg] | IOP max % decrease [%] | ocular hypotensive effect in dogs
1 | Cc1cc(CC[C@H](O)/C=C/[C@@H]2[C@@H](C/C=C\CCCC(=O)NS(C)(=O)=O)[C@@H](O)C[C@H]2O)sc1Br [Compound 9a, N-((Z)-7-{(1R,2R,3R,5S)-2-[(S)-(E)-5-(5-Bromo-4-methylthiophen-2-yl)-3-hydroxypent-1-enyl]-3,5-dihydroxycyclopentyl}hept-5-enoyl)methanesulfonamide] | 72 | 72 | −2.8 | −13.6 | pronounced ocular hypotensive effect
2 | Cc1sc(CC[C@H](O)/C=C/[C@@H]2[C@@H](C/C=C\CCCC(=O)NS(=O)(=O)c3ccccc3)[C@@H](O)C[C@H]2O)cc1Cl [Compound 19b] | 74 | 74 | −2.6 | −13.0 | pronounced ocular hypotensive effect
3 | Cc1sc(CC[C@H](O)/C=C/[C@@H]2[C@@H](C/C=C\CCCC(=O)NS(C)(=O)=O)[C@@H](O)C[C@H]2O)cc1Cl [Compound 9b, N-((Z)-7-{(1R,2R,3R,5S)-2-[(S)-(E)-5-(4-Chloro-5-methylthiophen-2-yl)-3-hydroxypent-1-enyl]-3,5-dihydroxycyclopentyl}hept-5-enoyl)methanesulfonamide] | 96 | 96 | −4.9 | −26.5 | pronounced ocular hypotensive effect
4 | CS(=O)(=O)NC(=O)CCC/C=C\C[C@@H]1[C@@H](/C=C/[C@@H](O)CCc2ccc(Cl)s2)[C@H](O)C[C@@H]1O [Compound 9c] | 102 | 102 | −4.2 | −23.8 | pronounced ocular hypotensive effect
5 | CS(=O)(=O)NC(=O)CCC/C=C\C[C@@H]1[C@@H](/C=C/[C@@H](O)CCc2ccc(Br)s2)[C@H](O)C[C@@H]1O [Compound 9e] | 100 | 100 | −2.0 | −11.7 | pronounced ocular hypotensive effect
6 | CCS(=O)(=O)NC(=O)CCC/C=C\C[C@@H]1[C@@H](/C=C/[C@@H](O)CCc2cc(C)c(Br)s2)[C@H](O)C[C@@H]1O [Compound 10a, Ethanesulfonic acid ((Z)-7-{(1R,2R,3R,5S)-2-[(S)-(E)-5-(5-bromo-4-methylthiophen-2-yl)-3-hydroxypent-1-enyl]-3,5-dihydroxycyclopentyl}hept-5-enoyl)amide] | 4 | 4 | −5.1 | −24.9 | pronounced ocular hypotensive effect
7 | Cc1cc(CC[C@H](O)/C=C/[C@@H]2[C@@H](C/C=C\CCCC(=O)N(COC(=O)C(C)(C)C)S(C)(=O)=O)[C@@H](O)C[C@H]2O)sc1Br [Compound 18a] | 24 | 24 | −3.9 | −22.0 | pronounced ocular hypotensive effect

From patent US6706755B2, “Cyclopentane heptan(ene) acyl sulfonamide, 2-alkyl or 2-arylalkyl, or 2-heteroarylalkenyl derivatives as therapeutic agents” (Allergan, Inc., priority 2001, dated 2004)
